Measurements from the NIST ThermoML archive (doi:10.1021/acs.jced.9b00185).

Assays:
[1] = excess molar enthalpy (molar enthalpy of mixing); xn = mol fraction of the nth substance listed; conditions: 298.15 K, 98.8 kPa, Liquid, Calvet calorimetry
[2] = 298.15 K; 101.33 kPa; Liquid; Vibrating tube method
[3] = refractive index (Na D-line) (dimensionless); conditions: 298.15 K; 101.33 kPa; Liquid; Standard Abbe refractometry
[4] = xn = mol fraction of the nth substance listed; conditions: 298.15 K, 98.8 kPa, Liquid, Vibrating tube method

CCCCCC [hexane] + CCCCCCCCCC(=O)OC
Conditions	excess molar enthalpy [kcal/mol]
[1], x2 = 0	0

CCCCCCCC [octane]
Conditions	mass density [kg/m3]	refractive index
[2]	698.45	–
[3]	–	1.3955

CCCCCCCCCC [decane]
Conditions	mass density [kg/m3]	refractive index
[2]	726.61	–
[3]	–	1.41

CCCCCCCCCCCCCCCC [hexadecane]
Conditions	mass density [kg/m3]	refractive index
[2]	769.8	–
[3]	–	1.4323

CCCCCCCCCC(=O)OC [methyl decanoate] + CCCCCCCCCCCC
Conditions	excess molar enthalpy, [1] [kcal/mol]	mass density, [4] [kg/m3]
x1 = 0.05	–	750.68
x1 = 0.0512	0.0394	–
x1 = 0.1	–	756.24
x1 = 0.1129	0.076	–
x1 = 0.1503	–	761.93
x1 = 0.1513	0.101	–
x1 = 0.1998	–	767.59
x1 = 0.2021	0.119	–
x1 = 0.25	–	773.38
x1 = 0.2513	0.141	–
x1 = 0.299	0.152	–
x1 = 0.3001	–	779.28
x1 = 0.3506	–	785.27
x1 = 0.3572	0.163	–
x1 = 0.3996	–	791.16
x1 = 0.4051	0.169	–
x1 = 0.4473	0.172	–
x1 = 0.4497	–	797.22
x1 = 0.5002	–	803.37
x1 = 0.5033	0.172	–
x1 = 0.55	–	809.54
x1 = 0.5502	0.169	–
x1 = 0.5952	0.163	–
x1 = 0.5998	–	815.74
x1 = 0.6499	–	822.04
x1 = 0.652	0.15	–
x1 = 0.6994	–	828.35
x1 = 0.7089	0.132	–
x1 = 0.7495	–	834.79
x1 = 0.7524	0.117	–
x1 = 0.7996	–	841.3
x1 = 0.8098	0.0954	–
x1 = 0.8493	–	847.78
x1 = 0.8525	0.0731	–
x1 = 0.8997	–	854.45
x1 = 0.9019	0.0485	–
x1 = 0.9496	–	861.18
x1 = 0.9586	0.0196	–
x1 = 1	0	868.02

CCCCCC [hexane]
Conditions	mass density [kg/m3]	refractive index
[2]	654.81	–
[3]	–	1.3725

CCCCCCCCCC(=O)OC [methyl decanoate] + CCCCCCCCCC
[1]
Conditions	excess molar enthalpy [kcal/mol]
x1 = 0.0469	0.033
x1 = 0.0985	0.0662
x1 = 0.1523	0.0915
x1 = 0.2018	0.115
x1 = 0.2537	0.133
x1 = 0.3062	0.15
x1 = 0.3563	0.156
x1 = 0.4008	0.16
x1 = 0.4543	0.162
x1 = 0.5058	0.159
x1 = 0.5498	0.156
x1 = 0.6017	0.146
x1 = 0.6524	0.133
x1 = 0.7078	0.114
x1 = 0.7597	0.0994
x1 = 0.8086	0.0813
x1 = 0.8592	0.0607
x1 = 0.9058	0.0406
x1 = 0.9566	0.0151
x1 = 1	0

CCCCCCCCCC(=O)OC [methyl decanoate] + CCCCCCCCCCCCCCCC
Conditions	excess molar enthalpy, [1] [kcal/mol]	mass density, [4] [kg/m3]
x1 = 0.0499	–	773.1
x1 = 0.0636	0.0471	–
x1 = 0.0998	–	776.6
x1 = 0.1131	0.081	–
x1 = 0.1501	–	780.26
x1 = 0.1619	0.107	–
x1 = 0.2	–	783.98
x1 = 0.201	0.129	–
x1 = 0.2497	–	787.88
x1 = 0.2575	0.153	–
x1 = 0.3006	–	791.99
x1 = 0.3056	0.17	–
x1 = 0.3497	–	796.11
x1 = 0.3584	0.184	–
x1 = 0.398	0.195	–
x1 = 0.4001	–	800.47
x1 = 0.4494	0.198	–
x1 = 0.45	–	804.97
x1 = 0.4955	0.198	–
x1 = 0.4997	–	809.64
x1 = 0.5479	0.195	–
x1 = 0.5502	–	814.55
x1 = 0.5983	0.188	–
x1 = 0.5995	–	819.57
x1 = 0.6494	0.177	–
x1 = 0.6501	–	824.85
x1 = 0.6996	–	830.28
x1 = 0.7034	0.163	–
x1 = 0.7497	–	835.95
x1 = 0.7512	0.145	–
x1 = 0.7997	–	841.91
x1 = 0.8015	0.126	–
x1 = 0.8489	–	847.93
x1 = 0.8493	0.102	–
x1 = 0.8992	–	854.43
x1 = 0.8995	0.0707	–
x1 = 0.9494	–	861.11
x1 = 0.9495	0.0366	–
x1 = 1	0	868.02

CCCCCCCC [octane] + CCCCCCCCCC(=O)OC
Conditions	excess molar enthalpy [kcal/mol]
[1], x2 = 0	0

CCCCCCCCCC(=O)OC [methyl decanoate] + CCCCCC
[1]
Conditions	excess molar enthalpy [kcal/mol]
x1 = 0.0479	0.0382
x1 = 0.0943	0.0636
x1 = 0.1448	0.081
x1 = 0.1927	0.105
x1 = 0.2477	0.114
x1 = 0.3077	0.123
x1 = 0.3542	0.126
x1 = 0.4059	0.125
x1 = 0.4574	0.12
x1 = 0.5055	0.113
x1 = 0.5557	0.107
x1 = 0.6037	0.0985
x1 = 0.6531	0.088
x1 = 0.7032	0.077
x1 = 0.752	0.0679
x1 = 0.8028	0.0543
x1 = 0.8496	0.0399
x1 = 0.9014	0.0277
x1 = 0.9328	0.0174
x1 = 1	0

CCCCCCCCCCCC [dodecane] + CCCCCCCCCC(=O)OC
x2 = 0
Conditions	excess molar enthalpy [kcal/mol]	mass density [kg/m3]
[1]	0	–
[4]	–	745.2

CCCCCCCCCC(=O)OC [methyl decanoate]
Conditions	mass density [kg/m3]	refractive index
[2]	868.02	–
[3]	–	1.4235

CCCCCCCCCCCCCC [tetradecane] + CCCCCCCCCC(=O)OC
x2 = 0
Conditions	excess molar enthalpy [kcal/mol]	mass density [kg/m3]
[1]	0	–
[4]	–	759.17

CCCCCCCCCC(=O)OC [methyl decanoate] + CCCCCCCC
[1]
Conditions	excess molar enthalpy [kcal/mol]
x1 = 0.0551	0.0394
x1 = 0.1035	0.0691
x1 = 0.154	0.0949
x1 = 0.2078	0.113
x1 = 0.2514	0.127
x1 = 0.3088	0.137
x1 = 0.3584	0.143
x1 = 0.399	0.147
x1 = 0.4514	0.146
x1 = 0.5051	0.143
x1 = 0.5555	0.137
x1 = 0.599	0.131
x1 = 0.657	0.115
x1 = 0.7066	0.103
x1 = 0.7511	0.0913
x1 = 0.8069	0.0712
x1 = 0.8577	0.0533
x1 = 0.9098	0.0351
x1 = 0.9561	0.0167
x1 = 1	0

CCCCCCCCCC(=O)OC [methyl decanoate] + CCCCCCCCCCCCCC
Conditions	excess molar enthalpy, [1] [kcal/mol]	mass density, [4] [kg/m3]
x1 = 0.0498	–	763.35
x1 = 0.0633	0.0497	–
x1 = 0.0922	0.0712	–
x1 = 0.1001	–	767.69
x1 = 0.1502	–	772.18
x1 = 0.1577	0.108	–
x1 = 0.1964	0.126	–
x1 = 0.1998	–	776.73
x1 = 0.2496	–	781.41
x1 = 0.258	0.152	–
x1 = 0.2999	–	786.24
x1 = 0.3045	0.163	–
x1 = 0.3501	–	791.21
x1 = 0.3597	0.176	–
x1 = 0.3944	0.184	–
x1 = 0.4001	–	796.26
x1 = 0.4492	0.19	–
x1 = 0.4498	–	801.43
x1 = 0.5001	–	806.77
x1 = 0.5076	0.19	–
x1 = 0.5498	–	812.19
x1 = 0.5535	0.185	–
x1 = 0.5997	–	817.76
x1 = 0.607	0.173	–
x1 = 0.6499	–	823.51
x1 = 0.6586	0.161	–
x1 = 0.6999	–	829.37
x1 = 0.7089	0.146	–
x1 = 0.7501	–	835.45
x1 = 0.7542	0.131	–
x1 = 0.799	–	841.48
x1 = 0.8009	0.115	–
x1 = 0.8477	0.0946	–
x1 = 0.849	–	847.78
x1 = 0.8974	0.0676	–
x1 = 0.8992	–	854.34
x1 = 0.9455	0.0423	–
x1 = 0.95	–	861.12
x1 = 1	0	868.02

CCCCCCCCCCCCCCCC [hexadecane] + CCCCCCCCCC(=O)OC
x2 = 0
Conditions	excess molar enthalpy [kcal/mol]	mass density [kg/m3]
[1]	0	–
[4]	–	769.8

CCCCCCCCCCCC [dodecane]
Conditions	mass density [kg/m3]	refractive index
[2]	745.2	–
[3]	–	1.4197

CCCCCCCCCC [decane] + CCCCCCCCCC(=O)OC
Conditions	excess molar enthalpy [kcal/mol]
[1], x2 = 0	0

CCCCCCCCCCCCCC [tetradecane]
Conditions	mass density [kg/m3]	refractive index
[2]	759.17	–
[3]	–	1.4273
